According to patent publication US7241905B2, “Dioxin analogues and methods and kits for searching out dioxins-decomposing organisms or enzymes or dioxin-decomposing enzyme genes” (Forestry and Forest Products Research Institute, priority 2001, dated 2007):

How the values were obtained:
Format in all cases: cell-based
Pleurotus pulumonairus [1] = assay: Screening of wood-rotting fungi for degradation of the naphthalene-type dioxin analogue (visual fluorescence); conditions: P. pulumonairus culture; substrate 1 ppm; samples 1, 3 and 5 days after addition; UV 365 nm; compared with the other five fungi
Experimental: (§1) Different species of wood-rotting fungi (i.e., Grammothele fuligo WD844, Phanerochaete crassa WD1694, Phanerochaete chrysosporium ME446, Fomitopsis palustris, Coriolus versicolor, and Pleurotus pulumonairus) were used as test subjects and were screened for the ability to degrade the dioxin analogue obtained in Example 2 (naphthalene-type analogue).
(§2) Each subject fungal species, which had been pre-cultured on potato agar and stamped out of the agar using a cork borer, was inoculated onto 10 ml modified NS medium (3% glucose, 1% peptone, inorganic salts, pH5.0) in a 100 ml Erlenmeyer flask and was cultured for 5 to 7 days at 28° C. Subsequently, a 100 μl DMSO solution containing the substrate naphthalene-type dioxin analogue obtained in Example 2 at a final concentration of 1 ppm was added to the culture. The solution was added so that the concentration of DMSO in the medium was 1%. Samples of the culture solution were collected at predetermined time intervals (i.e., 1, 3, and 5 days after the addition of the substrate). To a 100 μportion of each sample, 1.9 ml of an alkaline buffer (100 mM glycine, 100 mM sodium hydroxide, pH10.0) was added. The sample mixtures were then exposed to long-range UV light (365 nm) as excitation light and were visually screened for those emitting fluorescence.

Fomitopsis palustris [2] = assay: Degradation of dioxin in fungal culture, measured with a dioxin immunoassay kit; conditions: F. palustris culture (negative control fungus), 0.5 ppm, cultured 20 days, attributed to non-specific binding to fungal cells
Experimental: (§3) Pleurotus pulumonairus, which has proven to cause the most intense fluorescence in Examples 3 and 4, was examined for its ability to degrade dioxin.
(§4) As in Examples 3 and 4, Pleurotus pulumonairus was cultured in a culture medium containing glucose and peptone and, on day 7, 2,3,7,8-tetrachlorodioxin was added to the medium at a final concentration of 0.5 ppm. The fungus was subsequently cultured for 20 days. After the culturing period, the culture medium containing the fungus was freeze-dried and was subjected to extraction by refluxing with hexane. Hexane was then removed by distillation and the remaining culture was diluted 200-fold with 200 ml methanol containing 100 ppm Triton X-100. Using a High Performance Dioxin Immunoassay Kit (Cape Technologies, United States) according to the manufacturer's instruction, the concentration of dioxin was measured to determine the degradation rate of dioxin. A control shown in Table 2 is the above-described culture medium with only 2,3,7,8-tetrachlorodioxin added. Fomitopsis palustris was used as a negative control.

Pleurotus pulumonairus [3] = assay: as above; conditions: P. pulumonairus culture; 0.5 ppm; cultured 20 days; control medium without fungus 0%
Experimental: as §3, §4

[4] = test system: Phanerochaete crassa WD1694; assay: Screening of wood-rotting fungi for degradation of the esculetin-type dioxin analogue (fluorescence of metabolites); conditions: P. crassa WD1694 culture; substrate 1 ppm; day 7; excitation 350 nm, emission 450 nm; control medium without fungus 1370
Experimental: as §1, with “1 (esculetin-type” for “2 (naphthalene-type”
as §2, with “salts, pH 5.0)” for “salts, pH5.0)”, “substrate (esculetin-type” for “substrate naphthalene-type”, “Example 1)” for “Example 2”, “100 μl portion” for “100 μportion”, “hydroxide, pH 10.0)” for “hydroxide, pH10.0)”, “fluorescence. On day 7, the samples were irradiated with excitation light of 350 nm and, using a fluorescence spectrophotometer, the intensity of fluorescence was measured at 450 nm. A control shown in Table 1 is the above-described culture medium with only dioxin analogue (esculetin-type) added.” for “fluorescence.”

[5] = test system: Phanerochaete chrysosporium ME446; assay: as above; conditions: P. chrysosporium ME446 culture; substrate 1 ppm; day 7; excitation 350 nm, emission 450 nm; control medium without fungus 1370
Experimental: as §1, with “1 (esculetin-type” for “2 (naphthalene-type”
as §2, with “salts, pH 5.0)” for “salts, pH5.0)”, “substrate (esculetin-type” for “substrate naphthalene-type”, “Example 1)” for “Example 2”, “100 μl portion” for “100 μportion”, “hydroxide, pH 10.0)” for “hydroxide, pH10.0)”, “fluorescence. On day 7, the samples were irradiated with excitation light of 350 nm and, using a fluorescence spectrophotometer, the intensity of fluorescence was measured at 450 nm. A control shown in Table 1 is the above-described culture medium with only dioxin analogue (esculetin-type) added.” for “fluorescence.”

Fomitopsis palustris [6] = assay: as above; conditions: F. palustris culture; substrate 1 ppm; day 7; excitation 350 nm, emission 450 nm; control medium without fungus 1370
Experimental: as §1, with “1 (esculetin-type” for “2 (naphthalene-type”
as §2, with “salts, pH 5.0)” for “salts, pH5.0)”, “substrate (esculetin-type” for “substrate naphthalene-type”, “Example 1)” for “Example 2”, “100 μl portion” for “100 μportion”, “hydroxide, pH 10.0)” for “hydroxide, pH10.0)”, “fluorescence. On day 7, the samples were irradiated with excitation light of 350 nm and, using a fluorescence spectrophotometer, the intensity of fluorescence was measured at 450 nm. A control shown in Table 1 is the above-described culture medium with only dioxin analogue (esculetin-type) added.” for “fluorescence.”

Coriolus versicolor = assay: as above; conditions: C. versicolor culture; substrate 1 ppm; day 7; excitation 350 nm, emission 450 nm; control medium without fungus 1370
Experimental: as §1, with “1 (esculetin-type” for “2 (naphthalene-type”
as §2, with “salts, pH 5.0)” for “salts, pH5.0)”, “substrate (esculetin-type” for “substrate naphthalene-type”, “Example 1)” for “Example 2”, “100 μl portion” for “100 μportion”, “hydroxide, pH 10.0)” for “hydroxide, pH10.0)”, “fluorescence. On day 7, the samples were irradiated with excitation light of 350 nm and, using a fluorescence spectrophotometer, the intensity of fluorescence was measured at 450 nm. A control shown in Table 1 is the above-described culture medium with only dioxin analogue (esculetin-type) added.” for “fluorescence.”

Pleurotus pulumonairus [7] = assay: as above; conditions: P. pulumonairus culture; substrate 1 ppm; day 7; excitation 350 nm, emission 450 nm; control medium without fungus 1370
Experimental: as §1, with “1 (esculetin-type” for “2 (naphthalene-type”
as §2, with “salts, pH 5.0)” for “salts, pH5.0)”, “substrate (esculetin-type” for “substrate naphthalene-type”, “Example 1)” for “Example 2”, “100 μl portion” for “100 μportion”, “hydroxide, pH 10.0)” for “hydroxide, pH10.0)”, “fluorescence. On day 7, the samples were irradiated with excitation light of 350 nm and, using a fluorescence spectrophotometer, the intensity of fluorescence was measured at 450 nm. A control shown in Table 1 is the above-described culture medium with only dioxin analogue (esculetin-type) added.” for “fluorescence.”

Grammothele fuligo WD844 = assay: as above; conditions: G. fuligo WD844 culture; substrate 1 ppm; day 7; excitation 350 nm, emission 450 nm; control medium without fungus 1370
Experimental: as §1, with “1 (esculetin-type” for “2 (naphthalene-type”
as §2, with “salts, pH 5.0)” for “salts, pH5.0)”, “substrate (esculetin-type” for “substrate naphthalene-type”, “Example 1)” for “Example 2”, “100 μl portion” for “100 μportion”, “hydroxide, pH 10.0)” for “hydroxide, pH10.0)”, “fluorescence. On day 7, the samples were irradiated with excitation light of 350 nm and, using a fluorescence spectrophotometer, the intensity of fluorescence was measured at 450 nm. A control shown in Table 1 is the above-described culture medium with only dioxin analogue (esculetin-type) added.” for “fluorescence.”

Clc1cc2c(cc1Cl)Oc1cc3ccccc3cc1O2 [Example 2]
Fluorescence emission, visually screened (Pleurotus pulumonairus [1]): most intense fluorescence emission

Clc1cc2c(cc1Cl)Oc1cc(Cl)c(Cl)cc1O2 [2,3,7,8-tetrachlorodioxin]
Degradation rate (Fomitopsis palustris [2]): 9%
Degradation rate (Fomitopsis palustris [2]; listed as dioxin): 9%
Degradation rate (Pleurotus pulumonairus [3]): 31%

Cc1cc(=O)oc2cc3c(cc12)Oc1cc(Cl)c(Cl)cc1O3 [Example 1]
Fluorecsence intensity [4]: 1419
Fluorecsence intensity [5]: 1619
Fluorecsence intensity (Fomitopsis palustris [6]): 1314
Fluorecsence intensity (Coriolus versicolor): 1601
Fluorecsence intensity (Pleurotus pulumonairus [7]): 2203
Fluorecsence intensity (Grammothele fuligo WD844): 1639
